Where two headings read alike, the source gives them in different places. Values belong to the compound of their own block, whether it stands above or below them.
Tests used:
in vitro = details: for PAMPA-BBB log Pe (cm s−1): pH 7.4
Outline: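 PAMPA-BBB with lipid membrane of PBL and cholesterol in n-dodecane; donor contains extract in EtOH/PBS pH 7.4 (1:1), acceptor PBS. Incubated 4 h at 37°C in the dark; donor and acceptor analysed by UHPLC-Q-TOF-MS, Pe calculated from acceptor and equilibrium concentrations.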

[1] = cited from earlier work
[2] = ref PubChem database, cited from earlier work
[3] = PAMPA, pH 7.4, PAMPA-BBB log Pe (cm s−1)
[4] = compounds from Ginkgo biloba L. extract, ref Könczöl et al. ([69])
[5] = compounds of RSFE extract, octanol-water partition coefficient

Compound: O=c1cc(-c2ccc(O)cc2)oc2cc(O)cc(O)c12 [Apigenin]
Papp (in vitro; [3]): 26.3 ×10⁻⁶ cm/s
Cross BBB potential (in vitro; compound within RSFE extract): ++ (log Pe > −5.5)
PAMPA-BBB logPe [1, 4]: −5.35

Compound: COc1cc(-c2oc3cc(O)cc(O)c3c(=O)c2O)ccc1O [Isorhamnetin]
Cross BBB potential (in vitro; PAMPA): +++ (key: -: not detected in acceptor; +: log Pe > −6.5; ++: log Pe > −5.5; +++: log Pe > −4.5)
Papp (in vitro; [3]): 49 ×10⁻⁶ cm/s
PAMPA-BBB logPe [1, 4]: −5.46
Log P [2, 5]: 1.9

Compound: O=c1c(O)c(-c2ccc(O)cc2)oc2cc(O)cc(O)c12 [Kaempferol]
Papp at 4 h (in vitro; PAMPA, pH 7.4, PAMPA-BBB log Pe (cm s−1), compound within ASFE extract, 4 h, 37°C, PBS pH 7.4): 2.29 ×10⁻⁶ cm/s
Papp at 4 h (in vitro; PAMPA, pH 7.4, PAMPA-BBB log Pe (cm s−1), compound within KD extract, 4 h, 37°C, PBS pH 7.4): 14.8 ×10⁻⁶ cm/s
Papp at 4 h (in vitro; PAMPA, pH 7.4, PAMPA-BBB log Pe, compound within LPLE (Nothofagus pumilio, lenga PLE extract), N.D = not detected in acceptor): 21.4 ×10⁻⁶ cm/s
PAMPA-BBB logPe ([1]; PAMPA): −5.13
Log P ([2]; compounds identified in LPLE extract): 1.9
Log P ([2]; compounds of ASFE extract): 1.9
Log P ([2]; compounds of KD extract): 1.9

Compound: COc1ccc2c3c1O[C@H]1C[C@@H](O)C=C[C@@]31CCN(C)C2 [galantamine, reference compound]
logPe (cm s^−1) ([1]; therapeutic drug for comparison, ref [70]): –5.35 ± 0.02 cm s^−1

Cross BBB potential (in vitro; PAMPA): +++
PAMPA-BBB log Pe (cm s−1) (in vitro; PAMPA, 4 h): −3.96 cm s−1
Compound: Methydihydrojasmonic acid
Log P [2, 5]: 1.6

Cross BBB potential (in vitro; PAMPA): ++
PAMPA-BBB log Pe (cm s−1) (in vitro; PAMPA, 4 h): −4.62 cm s−1
Compound: Notohamosine B
Log P [2, 5]: 5.6

Compound: Resibufagin
Cross BBB potential (in vitro; compound within KD extract): -
Log P ([2]; compounds of KD extract): 2.4
